Results on one compound are retold here after publication PMC4552603 (Pharmacology, biochemistry, and behavior, 2015).

Counter-ions that a name gives are not always drawn.

In assay [1] the test system is rats. The assay is described as follows: Conditioned place preference. The following applies: morphine 1 mg/kg s.c.; for mean change from baseline (time in drug-paired compartment): rats. The class given is in vivo, rat.
Assay [2] relates to rats. The conditions noted are these: rat, in vivo.

For `CN1CC[C@]23c4c5ccc(O)c4O[C@H]2[C@@H](O)C=C[C@H]3[C@H]1C5` [Morphine, Morphine sulfate], the place preference result in assay [1] (vs saline, two-way ANOVA p = 0.0013) is “significant place preference”. For the same compound, the “mean change from baseline (time in drug-paired compartment)” value was “+83.4 sec” in assay [1] (test session one) and “+96.62 sec” in assay [1] (test session two). The “responding (drug infusions) vs saline” value in assay [2] is recorded as “significantly greater responding than saline”.
